Tested on: H3K27 methylation in G401 cell
Assay: ELISA (H3K27 methylation) assay
Format: cell-based
Details: Homo sapiens, G-401; ELISA Qualified assay (H3K27 methylation); read-out: (c) IC50 (μM), ELISA Qualified
Text: ELISA (H3K27 Methylation) Assay

IC50 [µM] | Compound
0.162 | Cc1nn(C)c(C)c1-c1cnc(NCc2cccc3c2CCO3)n2cnnc12 [Example 24, N-((2,3-dihydrobenzofuran-4-yl)methyl)-8-(1,3,5-trimethyl-1H-pyrazol-4-yl)-[1,2,4]triazolo[4,3-c]pyrimidin-5-amine]
0.0104 | Fc1ccc2c(c1CNc1ncc(-c3ccnn3C3CC3)c3nncn13)CCO2 [Example 192, 8-(1-cyclopropyl-1H-pyrazol-5-yl)-N-((5-fluoro-2,3-dihydrobenzofuran-4-yl)methyl)-[1,2,4]triazolo[4,3-c]pyrimidin-5-amine]
0.0097 | Fc1ccc2c(c1CNc1ncc(-c3cccnc3)c3nncn13)CCO2 [Example 44, N-((5-fluoro-2,3-dihydrobenzofuran-4-yl)methyl)-8-(pyridin-3-yl)-[1,2,4]triazolo[4,3-c]pyrimidin-5-amine]
0.0167 | Fc1ccc2c(c1CNc1ncc(-c3cnccn3)c3nncn13)CCO2 [Example 205, N-((5-fluoro-2,3-dihydrobenzofuran-4-yl)methyl)-8-(pyrazin-2-yl)-[1,2,4]triazolo[4,3-c]pyrimidin-5-amine]
0.214 | O=S(=O)(c1ccc(-c2cnc(NCc3cccc4c3CCO4)n3cnnc23)cc1)C1CCNCC1 [Example 29, N-((2,3-dihydrobenzofuran-4-yl)methyl)-8-(4-(piperidin-4-ylsulfonyl)phenyl)-[1,2,4]triazolo[4,3-c]pyrimidin-5-amine]
0.0804 | Fc1ccc2c(c1CNc1ncc(-c3cnccc3C(F)(F)F)c3nncn13)CCO2 [Example 136, N-((5-fluoro-2,3-dihydrobenzofuran-4-yl)methyl)-8-(4-(trifluoromethyl)pyridin-3-yl)-[1,2,4]triazolo[4,3-c]pyrimidin-5-amine]
0.124 | OCCN1CCN(c2ccc(-c3cnc(NCc4cccc5c4CCO5)n4cnnc34)cn2)CC1 [Example 110, 2-(4-(5-(5-(((2,3-dihydrobenzofuran-4-yl)methyl)amino)-[1,2,4]triazolo[4,3-c]pyrimidin-8-yl)pyridin-2-yl)piperazin-1-yl)ethanol]
0.0493 | CS(=O)(=O)c1ccc(-c2cnc(NCc3c(F)ccc4c3CCO4)n3cnnc23)cn1 [Example 56, N-((5-fluoro-2,3-dihydrobenzofuran-4-yl)methyl)-8-(6-(methylsulfonyl)pyridin-3-yl)-[1,2,4]triazolo[4,3-c]pyrimidin-5-amine]
0.002 | Fc1ccc2c(c1CNc1ncc(-c3cccnc3C(F)F)c3nncn13)CCO2 [Example 168, 8-(2-(difluoromethyl)pyridin-3-yl)-N-((5-fluoro-2,3-dihydrobenzofuran-4-yl)methyl)-[1,2,4]triazolo[4,3-c]pyrimidin-5-amine]
0.148 | CC(O)c1ccc(-c2cnc(NCc3cccc4c3CCO4)n3cnnc23)cn1 (centres unmarked) [Example 84, 1-(5-(5-(((2,3-dihydrobenzofuran-4-yl)methyl)amino)-[1,2,4]triazolo[4,3-c]pyrimidin-8-yl)pyridin-2-yl)ethanol]
0.155 | c1cc(CNc2ncc(-c3ccc(N4CCSCC4)nc3)c3nncn23)c2c(c1)OCC2 [Example 81, N-((2,3-dihydrobenzofuran-4-yl)methyl)-8-(6-thiomorpholinopyridin-3-yl)-[1,2,4]triazolo[4,3-c]pyrimidin-5-amine]
0.107 | CC(C)(O)c1ccc(-c2cnc(NCc3cccc4c3CCO4)n3cnnc23)cn1 [Example 99, 2-(5-(5-(((2,3-dihydrobenzofuran-4-yl)methyl)amino)-[1,2,4]triazolo[4,3-c]pyrimidin-8-yl)pyridin-2-yl)propan-2-ol]
0.0334 | CN(C)CCc1ccc(-c2cnc(NCc3cccc4c3CCO4)n3cnnc23)cc1 [Example 35, N-((2,3-dihydrobenzofuran-4-yl)methyl)-8-(4-(2-(dimethylamino)ethyl)phenyl)-[1,2,4]triazolo[4,3-c]pyrimidin-5-amine]
0.0108 | Fc1ccc2c(c1CNc1ncc(-c3ccc(C4CC4)nc3)c3nncn13)CCO2 [Example 119, 8-(6-cyclopropylpyridin-3-yl)-N-((5-fluoro-2,3-dihydrobenzofuran-4-yl)methyl)-[1,2,4]triazolo[4,3-c]pyrimidin-5-amine]
0.0106 | Cc1cnc(F)cc1-c1cnc(NCc2c(F)ccc3c2CCO3)n2cnnc12 [Example 183, N-((5-fluoro-2,3-dihydrobenzofuran-4-yl)methyl)-8-(2-fluoro-5-methylpyridin-4-yl)-[1,2,4]triazolo[4,3-c]pyrimidin-5-amine]
0.0079 | CN(C)Cc1ccc(-c2cnc(NCc3c(F)ccc4occc34)n3cnnc23)cc1 [Example 219, 8-(4-((dimethylamino)methyl)phenyl)-N-((5-fluorobenzofuran-4-yl)methyl)-[1,2,4]triazolo[4,3-c]pyrimidin-5-amine]
0.445 | Fc1ccc(-c2cnc(NCc3c(F)ccc4c3CCO4)n3cnnc23)c(Cl)c1 [Example 157, 8-(2-chloro-4-fluorophenyl)-N-((5-fluoro-2,3-dihydrobenzofuran-4-yl)methyl)-[1,2,4]triazolo[4,3-c]pyrimidin-5-amine]
0.0029 | Cn1nccc1-c1cnc(NCc2c(F)ccc3c2CCO3)n2cnnc12 [Example 169, N-((5-fluoro-2,3-dihydrobenzofuran-4-yl)methyl)-8-(1-methyl-1H-pyrazol-5-yl)-[1,2,4]triazolo[4,3-c]pyrimidin-5-amine]

IC50 [µM] | Compound
0.0409 | OCc1ncccc1-c1cnc(NCc2c(F)ccc3c2C(O)CO3)n2cnnc12 (centres unmarked) [Example 243, 5-fluoro-4-(((8-(2-(hydroxymethyl)pyridin-3-yl)-[1,2,4]triazolo[4,3-c]pyrimidin-5-yl)amino)methyl)-2,3-dihydrobenzofuran-3-ol]
0.0046 | Cc1ncncc1-c1cnc(NCc2c(F)ccc3c2CCO3)n2cnnc12 [Example 176, N-((5-fluoro-2,3-dihydrobenzofuran-4-yl)methyl)-8-(4-methylpyrimidin-5-yl)-[1,2,4]triazolo[4,3-c]pyrimidin-5-amine]
0.72 | O=CN1CCCN(c2ccc(-c3cnc(NCc4cccc5c4CCO5)n4cnnc34)cn2)CC1 [Example 113, 4-(5-(5-(((2,3-dihydrobenzofuran-4-yl)methyl)amino)-[1,2,4]triazolo[4,3-c]pyrimidin-8-yl)pyridin-2-yl)-1,4-diazepane-1-carbaldehyde]
0.106 | Cc1ccc(-c2cnc(NCc3cccc4c3CCO4)n3cnnc23)cn1 [Example 52]
0.142 | O=C1CN(Cc2ccc(-c3cnc(NCc4cccc5c4CCO5)n4cnnc34)cn2)CCN1 [Example 133, 4-((5-(5-(((2,3-dihydrobenzofuran-4-yl)methyl)amino)-[1,2,4]triazolo[4,3-c]pyrimidin-8-yl)pyridin-2-yl)methyl)piperazin-2-one]
0.0044 | Cc1c(-c2cnc(NCc3c(F)ccc4c3CCO4)n3cnnc23)cnn1C [Example 172, 8-(1,5-dimethyl-1H-pyrazol-4-yl)-N-((5-fluoro-2,3-dihydrobenzofuran-4-yl)methyl)-[1,2,4]triazolo[4,3-c]pyrimidin-5-amine]
0.0025 | Cc1c(-c2cnc(NCc3c(F)ccc4c3CCO4)n3cnnc23)ccnc1CF [Example 182, N-((5-fluoro-2,3-dihydrobenzofuran-4-yl)methyl)-8-(2-(fluoromethyl)-3-methylpyridin-4-yl)-[1,2,4]triazolo[4,3-c]pyrimidin-5-amine]
0.0014 | Fc1ccc2c(c1CNc1ncc(-n3ccnc3)c3nncn13)CCO2 [Example 240, N-((5-fluoro-2,3-dihydrobenzofuran-4-yl)methyl)-8-(1H-imidazol-1-yl)-[1,2,4]triazolo[4,3-c]pyrimidin-5-amine]
0.0024 | Cc1nn(C)cc1-c1cnc(NCc2c(F)ccc3c2CCO3)n2cnnc12 [Example 195, 8-(1,3-dimethyl-1H-pyrazol-4-yl)-N-((5-fluoro-2,3-dihydrobenzofuran-4-yl)methyl)-[1,2,4]triazolo[4,3-c]pyrimidin-5-amine]
0.0206 | Fc1ccc2c(c1CNc1ncc(-c3ccnnc3)c3nncn13)CCO2 [Example 202, N-((5-fluoro-2,3-dihydrobenzofuran-4-yl)methyl)-8-(pyridazin-4-yl)-[1,2,4]triazolo[4,3-c]pyrimidin-5-amine]
0.48 | O=C1OCCN1c1ccc(-c2cnc(NCc3cccc4c3CCO4)n3cnnc23)cn1 [Example 117, 3-(5-(5-(((2,3-dihydrobenzofuran-4-yl)methyl)amino)-[1,2,4]triazolo[4,3-c]pyrimidin-8-yl)pyridin-2-yl)oxazolidin-2-one]
0.0077 | Cc1nn(C)c(C)c1-c1cnc(NCc2c(F)ccc3c2CCO3)n2cnnc12 [Example 132, N-((5-fluoro-2,3-dihydrobenzofuran-4-yl)methyl)-8-(1,3,5-trimethyl-1H-pyrazol-4-yl)-[1,2,4]triazolo[4,3-c]pyrimidin-5-amine]
0.0179 | Cc1ncn(-c2cnc(NCc3c(F)ccc4c3CCO4)n3cnnc23)n1 [Example 238, N-((5-fluoro-2,3-dihydrobenzofuran-4-yl)methyl)-8-(3-methyl-1H-1,2,4-triazol-1-yl)-[1,2,4]triazolo[4,3-c]pyrimidin-5-amine]
0.0803 | COCCn1nc(C)c(-c2cnc(NCc3cccc4c3CCO4)n3cnnc23)c1C [Example 66, N-((2,3-dihydrobenzofuran-4-yl)methyl)-8-(1-(2-methoxyethyl)-3,5-dimethyl-1H-pyrazol-4-yl)-[1,2,4]triazolo[4,3-c]pyrimidin-5-amine]
0.202 | OCCOc1ccc(-c2cnc(NCc3cccc4c3CCO4)n3cnnc23)cc1 [Example 38, 2-(4-(5-(((2,3-dihydrobenzofuran-4-yl)methyl)amino)-[1,2,4]triazolo[4,3-c]pyrimidin-8-yl)phenoxy)ethanol]
0.0978 | Cc1c(-c2cnc(NCc3cccc4c3CCO4)n3cnnc23)cnn1C [Example 64, N-((2,3-dihydrobenzofuran-4-yl)methyl)-8-(1,5-dimethyl-1H-pyrazol-4-yl)-[1,2,4]triazolo[4,3-c]pyrimidin-5-amine]
0.14 | COCc1ncc(-c2cnc(NCc3cccc4c3CCO4)n3cnnc23)cc1C [Example 83, N-((2,3-dihydrobenzofuran-4-yl)methyl)-8-(6-(methoxymethyl)-5-methylpyridin-3-yl)-[1,2,4]triazolo[4,3-c]pyrimidin-5-amine]
